Measured values reported in ChEMBL document CHEMBL1153541 (J Med Chem, 2009).
Values belong to the compound of their own block, whether it stands above or below them. The source made the active and inactive calls. The rule behind the calls is not given here.

Columns and labels:
L6 = test: Cytotoxicity against rat L6 cells after 70 hrs by alamar blue assay; format: cell-based; details: L6, 70 h
Leishmania donovani = test: Antileishmanial activity against Leishmania donovani MHOM/SD/62/1S-CL2D axenic amastigotes after 72 hrs by tetrazolium dye-based microplate reader method; format: functional, organism-based
[1] = tested on: Trypanosoma brucei rhodesiense; test: Antitrypanosomal activity against Trypanosoma brucei rhodesiense STIB900 in mouse model of acute trypanosomiasis assessed as induction of cure at 20 mg/kg administered daily for 4 days; format: functional, organism-based; design: dose 20 mg/kg
[2] = tested on: Trypanosoma brucei rhodesiense; test: Antitrypanosomal activity against Trypanosoma brucei rhodesiense STIB900 in mouse model of acute trypanosomiasis assessed as increase in survival time at 20 mg/kg administered daily for 4 days; format: functional, organism-based; design: dose 20 mg/kg
[3] = tested on: Trypanosoma brucei rhodesiense; test: Ratio of pentamidine IC50 to compound IC50 for blood stream form of Trypanosoma brucei rhodesiense STIB900 trypomastigotes; format: functional
[4] = tested on: Trypanosoma brucei rhodesiense; test: Antitrypanosomal activity against blood stream form of Trypanosoma brucei rhodesiense STIB900 trypomastigotes after 70 hrs by alamar blue assay; format: functional, organism-based; details: STIB900, 70 h
[5] = Selectivity index, ratio of IC50 for rat L6 cells to IC50 for blood stream form of Trypanosoma brucei rhodesiense STIB900 trypomastigotes; format: toxicity, cell-based; details: read-out: Ratio IC50
[6] = Selectivity index, ratio of IC50 for rat L6 cells to IC50 for chloroquine-resistant Plasmodium falciparum K1; format: toxicity, cell-based; details: read-out: Ratio IC50
[7] = Selectivity index, ratio of IC50 for rat L6 cells to IC50 for Leishmania donovani MHOM/SD/62/1S-CL2D axenic amastigotes; format: toxicity, cell-based; details: read-out: Ratio IC50
Plasmodium falciparum = test: Antiplasmodial activity after 48 hrs against chloroquine-resistant Plasmodium falciparum K1 by [3H]hypoxanthine uptake; format: functional, organism-based

- IC50 (Leishmania donovani): 780 nM
- IC50 [4]: 25 nM
Structure (SMILES): N=C(N)c1ccc(OCCCOc2ccc(-c3cc4ccc(C(=N)N)cc4o3)cc2)cc1
- IC50 (L6): 8600 nM
- Activity [1]: inactive
- Activity [2]: Active
- Ratio IC50 [3]: 8

Structure (SMILES): CC(C)NC(=N)c1ccc2oc(-c3cccc(OCCCCCCOc4ccccc4)c3)cc2c1
- selectivity ratio [5]: 6
- IC50 (L6): 7400 nM
- IC50 (Leishmania donovani): 7000 nM
- selectivity ratio [6]: 40
- selectivity ratio [7]: 1
- IC50 (Plasmodium falciparum): 183 nM
- IC50 [4]: 1160 nM

Structure (SMILES): c1ccc(OCCCCCCOc2cccc(-c3cc4cc(C5=NCCN5)ccc4o3)c2)cc1
- selectivity ratio [5]: 26
- IC50 (Leishmania donovani): 1900 nM
- selectivity ratio [6]: 51
- selectivity ratio [7]: 1
- IC50 (Plasmodium falciparum): 49 nM
